This note sets out measurements from article PMC12040169 (PLOS Biology, 2025).

A short description of this series: in vitro. As to conditions: human, hela cells, % viability.

The viability is a read-out of living cells in per cent, often relative to untreated cells. In the case of `CC(=O)NC(NC(=S)Nc1sc2c(c1C#N)CCCC2)C(Cl)(Cl)Cl` (stereo not drawn) [CBK261053], the viability at 28.5 h, 10 µM came out at 99.2%.
For `CC(=O)NC(NC(=S)Nc1sc2c(c1C(N)=O)CCCC2)C(Cl)(Cl)Cl` (stereo not drawn) [CBK261054], the viability at 28.5 h, 10 µM is 101%.
With `NC(=O)c1c(NC(=S)NC(NC(=O)c2ccco2)C(Cl)(Cl)Cl)sc2c1CCCC2` (stereo not drawn) [CBK261055], the viability at 28.5 h, 10 µM was 103%.
As for `CN(C)C1=NC(N(C)C)=NP(N(C)C)(N(C)C)=N1` [CBK261057], the viability at 28.5 h, 10 µM was determined as 91.8%.
For `Cc1[nH]c(=O)[nH]c(=O)c1S(=O)(=O)N1CCOCC1` [CBK261060], the viability at 28.5 h, 10 µM amounted to 96.1%.
The same measure, in the same setting: the value for `CC(=O)OC(C(=O)O)C(OC(C)=O)C(=O)O` (stereo not drawn) [CBK261063] was 95.5%; that for `C(=N\Nc1ccc2nn(-c3ccccc3)nc2c1)/c1c[nH]c2ccccc12` [CBK261064] was 91.6%.
The same measure, in the same setting: the figure for `NS(=O)(=O)c1ccc(NC(=S)NC(=O)/C=C/c2ccco2)cc1` [CBK261066] is 93%; for `NCCCCCCNC(=O)c1c(O)c2ccccc2oc1=O` [CBK261071] it is 97.9%.
Consider `Cc1ccc(CCSCC(=O)O)cn1` [CBK261072], for which the viability at 28.5 h, 10 µM worked out at 95.3%.
For the compound `O=C(c1ccc(O)cc1)c1ccc(C(=O)O)c(C(=O)O)c1` [CBK261075], the viability at 28.5 h, 10 µM worked out at 105%.
For `C[N+](C)(C)CCCCOC(c1ccccc1)c1ccccc1` [CBK261076I], the viability at 28.5 h, 10 µM stood at 94.1%.
As to `CCC(/C=C1\Oc2ccc(OC)cc2N1C)=C\c1sc2ccccc2[n+]1CCCS(=O)(=O)[O-]` [CBK261080], the viability at 28.5 h, 10 µM was 90.3%.
Same read-out and setting: the figure for `O=S(=O)([O-])CCC[n+]1c(/C=C/Nc2ccccc2)oc2ccc3ccccc3c21` [CBK261082] is 114%; for `O=C(O)CS(=O)(=O)c1ccccc1C(=O)O` [CBK261083] it is 98.9%.
Regarding `O=C(NC(N1CCOCC1)C(Cl)(Cl)Cl)c1ccc(Cl)cc1` (stereo not drawn) [CBK261084], the viability at 28.5 h, 10 µM amounted to 94.2%.
With `O=[N+]([O-])c1ccc(C(O)CNC(=S)Nc2ccccc2)cc1` (stereo not drawn) [CBK261086], the viability at 28.5 h, 10 µM came out at 99.8%.
Regarding `NC(CCCCNC(=O)c1ccccc1)C(=O)O` (stereo not drawn) [CBK261087], the viability at 28.5 h, 10 µM was determined as 97%.
As to `O=C(O)c1cccc(/N=C/c2ccc(/C=N/c3cccc(C(=O)O)c3)cc2)c1` [CBK261088], the viability at 28.5 h, 10 µM came out at 92.3%.
Still for that read-out and setting: the figure for `O=C(CCCN1C(=O)c2cccc3cccc(c23)C1=O)NO` [CBK261092] is 92%; for `O=[N+]([O-])c1ccc(O)c(/C=N/c2ccc(Oc3ccc(/N=C/c4cc([N+](=O)[O-])ccc4O)cc3)cc2)c1` [CBK261093] it is 96.7%.
Consider `O=C(Cc1cccc2ccccc12)NC(NC(=S)Nc1ccccc1Br)C(Cl)(Cl)Cl` (stereo not drawn) [CBK261094], for which the viability at 28.5 h, 10 µM amounted to 106%.
Take `O=C(O)c1ccccc1-n1c(=O)c2cc3c(=O)n(-c4ccccc4C(=O)O)c(=O)c3cc2c1=O` [CBK261097]: the viability at 28.5 h, 10 µM was found to be 87.5%.
The same measure, in the same setting: the value for `CC(C)(C)c1cc(CNCCS(=O)(=O)O)c(O)c(C(C)(C)C)c1` [CBK261098] was 107%; that for `CC(=O)Oc1cccc(N2C(=O)c3ccc(Oc4cccc(N)c4)cc3C2=O)c1` [CBK261099] was 96.4%.
On to `O=C(O)c1cc(C(=O)O)c(-c2ccccc2)c(C(=O)O)c1` [CBK261101], for which the viability at 28.5 h, 10 µM worked out at 93.7%.
Same read-out and setting: the value for `Cc1cccc(N(CC(=O)O)CC(=O)O)c1` [CBK261103] was 93.2%; that for `O=S(=O)(Oc1ccc(-c2cnc3ccccc3n2)cc1)c1ccccc1` [CBK261104] was 93.4%.
Take `CC(=O)NC(Cc1c[nH]cn1)C(=O)O` (stereo not drawn) [CBK261105]: the viability at 28.5 h, 10 µM came to 101%.
Take `Oc1ccccc1/C=N/CC(O)C/N=C/c1ccccc1O` [CBK261112]: the viability at 28.5 h, 10 µM stood at 103%.
Take `CCN(CC(O)COc1ccc2ccccc2c1)S(=O)(=O)O` (stereo not drawn) [CBK261113K]: the viability at 28.5 h, 10 µM is 87.2%.
Turning to `c1ccc2c(c1)nnn2CNCn1nnc2ccccc21` [CBK261114], the viability at 28.5 h, 10 µM worked out at 85.4%.
Still for that read-out and setting: the figure for `O=C(N/N=C/c1ccncc1)C1CC1C(=O)N/N=C/c1ccncc1` (stereo not drawn) [CBK261115] is 90.2%; for `Cc1ccnc(NCn2nnc3ccccc32)c1` [CBK261116] it is 110%; for `O=C(NC(C(=O)N/N=C/c1ccccc1O)c1n[nH]c(=O)c2ccccc12)c1ccccc1` (stereo not drawn) [CBK261117] it is 113%.
With `O=[N+]([O-])c1ccc(-n2cnc3ccccc32)c([N+](=O)[O-])c1` [CBK261120], the viability at 28.5 h, 10 µM (bulk resorufin, single well) was 91.9%.
Regarding `O/N=C1/c2ccccc2/C(=N/O)C1c1ccccc1` [CBK261122], the viability at 28.5 h, 10 µM amounted to 75.2%.
For the compound `O=C1NC(=S)NC(=O)C1=CNCCc1c[nH]c2ccccc12` [CBK261124], under “bulk resorufin, single well”, the viability at 28.5 h, 10 µM was 110%.
As for `Oc1cccc2ccc(/C=N/N=C/c3ccc4cccc(O)c4n3)nc12` [CBK261127], the viability at 28.5 h, 10 µM came to 89.3%.
On to `O=S(=O)(NCCc1ccccc1)c1cccc2nsnc12` [CBK261128], for which the viability at 28.5 h, 10 µM came out at 103%.
As for `CN(C)c1nc2ccc(OCCN3CCOCC3)cc2s1` [CBK261135], the viability at 28.5 h, 10 µM is 82.5%.
With `O=C(O)CNS(=O)(=O)c1cccc2nsnc12` [CBK261136], the viability at 28.5 h, 10 µM is 96.8%.
The same measure, in the same setting: the value for `N#CCCN(CCN1CCCC1)S(=O)(=O)c1cccc2nsnc12` [CBK261141] was 99.3%; that for `O=[N+]([O-])c1cccc(C(Nc2ccccn2)n2cnc3ccccc32)c1` (stereo not drawn) [CBK261145] was 87.6%.
Same read-out and setting: the figure for `O=C(O)CCCNC(=O)c1ccncc1` [CBK261146] is 104%; for `O=S(=O)(c1ccc2nc(-c3ccccc3)c(-c3ccc(O)cc3)nc2c1)c1ccc2nc(-c3ccccc3)c(-c3ccc(O)cc3)nc2c1` [CBK261148] it is 108%.
The same measure, in the same setting: the figure for `O=C(O)c1ccc(C2(c3ccc(C(=O)O)cc3)OC(=O)c3ccccc32)cc1` [CBK261150] is 98.2%; for `Cc1ccc(S(=O)(=O)Nc2ccc(C3(c4ccc(NS(=O)(=O)c5ccc(C)cc5)cc4)c4ccccc4C(=O)c4ccccc43)cc2)cc1` [CBK261155] it is 111%.
For `Oc1ccccc1/C=N/c1ccc(Cc2ccc(/N=C/c3ccccc3O)c(O)c2)cc1O` [CBK261156], the viability at 28.5 h, 10 µM was found to be 93.4%.
The same measure, in the same setting: the figure for `C(#Cc1cccc(-c2nc3ccccc3nc2-c2cccc(C#Cc3ccc(Sc4ccccc4)cc3)c2)c1)c1ccc(Sc2ccccc2)cc1` [CBK261158] is 93.2%; for `O=C(Nc1ccc2nc(-c3ccc(-c4nc5ccc(NC(=O)c6cccc7ccccc67)cc5[nH]4)cc3)[nH]c2c1)c1cccc2ccccc12` [CBK261160] it is 120%.
The same measure, in the same setting: the figure for `O=C(Nc1ccc(-c2nc3ccc(-c4nc5ccc(NC(=O)c6cccc7ccccc67)cc5[nH]4)cc3[nH]2)cc1)c1cccc2ccccc12` [CBK261161] is 94.4%.
Consider `O=C(Nc1cc([N+](=O)[O-])ccc1O)c1cccc(C(=O)Nc2cc([N+](=O)[O-])ccc2O)c1` [CBK261168], for which, under “bulk resorufin, single well”, the viability at 28.5 h, 10 µM worked out at 102%.
As to `CC(C)(C)c1ccc(OCC(O)CNS(=O)(=O)O)cc1` (stereo not drawn) [CBK261169N], the viability at 28.5 h, 10 µM was determined as 102%.
The same measure, in the same setting: the figure for `Cc1ccc(S(=O)(=O)NCC23C=CC(O2)C2C(=O)N(Cc4ccccc4)C(=O)C23)cc1` (stereo not drawn) [CBK261170] is 107%; for `CCOC(=O)C(C(=O)OCC)(N1CCOCC1)N1CCOCC1` [CBK261176] it is 112%.
On the same count and under the same terms, the value for `O=C(O)c1c(Cl)c(C(=O)O)c(C(=O)O)c(Cl)c1C(=O)O` [CBK261177] was 96.8%; that for `O=C(O)c1ccc2c(c1)C(=O)N(c1ccc(/C=C/C(=O)c3ccccc3)cc1)C2=O` [CBK261181] was 79.6%; that for `O=C(c1ccc2c(c1)C(=O)N(N1C(=O)c3ccccc3C1=O)C2=O)c1ccc2c(c1)C(=O)N(N1C(=O)c3ccccc3C1=O)C2=O` [CBK261182] was 96.4%.
On the same count and under the same terms, the value for `O=C(O)c1ccc(C(=O)c2c3c(=O)n(-c4ccccc4C(=O)O)c(=O)c3cc3c(=O)n(-c4ccccc4C(=O)O)c(=O)c23)cc1` [CBK261183] was 91.7%.
In the case of `O=C(Nc1c[nH]c(=O)[nH]c1=O)c1ccc(Oc2ccc(C(=O)Nc3c[nH]c(=O)[nH]c3=O)cc2)cc1` [CBK261184], the viability at 28.5 h, 10 µM turned out to be 108%.
On to `O=C(O)c1ccccc1N1C(=O)c2ccc(Oc3ccc(Oc4ccc5c(c4)C(=O)N(c4ccccc4C(=O)O)C5=O)cc3)cc2C1=O` [CBK261186], for which the viability at 28.5 h, 10 µM was found to be 88.6%.
Still for that read-out and setting: the figure for `O=C(O)c1ccc2c(c1)C(=O)N(c1ccc(-c3ccc(N4C(=O)c5ccc(C(=O)O)cc5C4=O)cc3)cc1)C2=O` [CBK261187] is 99.3%; for `O=C(O)c1cc(NC(=O)C(c2ccccc2)c2ccccc2)cc(C(=O)O)c1` [CBK261191] it is 93.2%; for `O=C(Nc1cccc(O)c1)c1ccc2c(c1)C(=O)N(c1cccc(N3C(=O)c4ccc(C(=O)Nc5cccc(O)c5)cc4C3=O)n1)C2=O` [CBK261199] it is 89.8%.
The same measure, in the same setting: the figure for `O=C1c2ccc(Oc3ccc4c(c3)C(=O)N(c3ccccn3)C4=O)cc2C(=O)N1c1ccccn1` [CBK261202] is 99.3%; for `Oc1ccc(/N=C/c2ccc(/C=N/c3ccc(O)cc3)cc2)cc1` [CBK261203] it is 98.5%.
On the same count and under the same terms, the value for `CC(Oc1cccc(Cl)c1)C(=O)NN` (stereo not drawn) [CBK261207] was 90.1%.
With `NNC(=O)COc1ccc2ccccc2c1` [CBK261208], the viability at 28.5 h, 10 µM is 104%.
On to `CC(Oc1cccc2ccccc12)C(=O)NN` (stereo not drawn) [CBK261209], for which the viability at 28.5 h, 10 µM was 112%.
Same read-out and setting: the figure for `O=C(O)/C(=N\O)c1ccc(CCc2ccccc2)s1` [CBK261213] is 90.8%.
For the compound `NNC(=O)/C(=C\c1ccccc1)CCO` [CBK261215], the viability at 28.5 h, 10 µM came to 117%.
On to `O=C(O)/C=C\C(=O)Nc1ccc(Oc2ccccc2)cc1` [CBK261216], for which the viability at 28.5 h, 10 µM stood at 102%.
As for `Clc1ccccc1C1N(Cc2ccccc2)CCN1Cc1ccccc1` [CBK261217], the viability at 28.5 h, 10 µM is 93.8%.
Turning to `O=C(CCc1ccccc1)N/N=C/c1cc2c(cc1[N+](=O)[O-])OCO2` [CBK261221], the viability at 28.5 h, 10 µM was 111%.
